# Laboratory results published in patent US20150148256A1, “BIOLUMINESCENCE IMAGING-BASED SCREENING ASSAY AND INHIBITORS OF ABCG2” (THE JOHNS HOPKINS UNIVERSITY, priority 2008, published 2015).
# Counter-ions that a name gives are not always drawn. Like-named read-outs stand apart in the source and are kept apart here.
# Molecular target: T1, ABCG2 (Homo sapiens, UniProt Q9UNQ0)
# T1 sequence (Q9UNQ0 1-655): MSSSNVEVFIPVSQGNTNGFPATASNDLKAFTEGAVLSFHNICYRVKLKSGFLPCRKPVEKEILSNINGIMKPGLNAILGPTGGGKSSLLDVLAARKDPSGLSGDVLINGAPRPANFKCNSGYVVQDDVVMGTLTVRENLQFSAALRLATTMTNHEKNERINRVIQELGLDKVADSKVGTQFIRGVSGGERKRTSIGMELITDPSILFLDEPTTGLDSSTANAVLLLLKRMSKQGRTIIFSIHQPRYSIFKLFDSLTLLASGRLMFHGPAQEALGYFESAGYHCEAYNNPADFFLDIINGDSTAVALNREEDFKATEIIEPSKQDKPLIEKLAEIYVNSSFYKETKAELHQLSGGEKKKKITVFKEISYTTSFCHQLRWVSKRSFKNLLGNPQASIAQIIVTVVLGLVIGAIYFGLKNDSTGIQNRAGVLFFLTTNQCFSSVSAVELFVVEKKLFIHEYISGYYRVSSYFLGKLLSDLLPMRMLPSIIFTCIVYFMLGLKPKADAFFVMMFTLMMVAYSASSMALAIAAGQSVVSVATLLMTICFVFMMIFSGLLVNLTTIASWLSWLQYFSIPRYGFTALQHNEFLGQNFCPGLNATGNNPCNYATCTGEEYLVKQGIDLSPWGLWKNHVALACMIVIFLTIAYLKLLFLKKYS
# Assay: Bioluminescence imaging (BLI) assay in HEK293/ABCG2/fLuc cells
# Procedure: HEK293/ABCG2/fLuc cells were plated into 96-well plates at a density of 4×10^4 cells/100 μL per well and were allowed to attach overnight. The following day, 10 μL of each compound or the control solvent was transferred from a compound library in a 96-well, high-throughput format into the wells using a multichannel pipette. […] Images were taken every 5 minutes for ˜1 h. Light output from each well was quantified at the 40 min time point after initiation of imaging, and the signal-to-background (S/B) ratio of the light output from each compound divided by that from the control well was calculated. This S/B ratio serves as an indicator of the potency of ABCG2 inhibition, the mechanism by which BLI signal is enhanced.
# Images were taken every 5 min for ˜1 h, and light output from each well at the 40 min time point was chosen for quantification. The SB ratio of the light output from each compound divided by that from the control well was calculated. This ratio was used as an indicator of the potency of ABCG2 inhibition, the mechanism by which BLI signal is enhanced.
# The BLI signal-enhancing effect of selected ABCG2 inhibitors was evaluated within the range of 0.001 μM-100 μM, with HEK293/ABCG2/fLuc cells and 50 μg/mL D-luciferin. The data obtained at 40 min after imaging commencement were chosen arbitrarily to be plotted (FIG. 3).
# [1] = Table 2, HEK293/ABCG2/fLuc cells, compound approximately 17 μM, ~50 μg/mL D-luciferin, 40 min time point
# [2] = Table 4, approximately 17 μM, 40 min time point
Structure (SMILES),"Fold (BLI enhancement, S/B ratio over control) (human, 40 min, 17 μM)",further results
O=c1[nH]c2ccccc2n1CCCN1CCC(n2c(=O)[nH]c3cc(Cl)ccc32)CC1 [domperidone],2.5 fold,
COc1cc2nc(N3CCN(C(=O)C4COc5ccccc5O4)CC3)nc(N)c2cc1OC (stereo not drawn) [doxazosin mesylate],,"IC50: 8 µM; BLI signal enhancement (human, 40 min, 17 μM): 16 fold"
Clc1ccc(COC(Cn2ccnc2)c2ccc(Cl)cc2Cl)cc1 (stereo not drawn) [econazole],2.5 fold,
Cc1c2ccncc2c(C)c2c1[nH]c1ccccc12 [ellipticine],,"Fold (BLI enhancement, S/B ratio over control) [1]: 2.5 fold"
Cc1cc(O)c2c(c1)C(=O)c1cc(O)cc(O)c1C2=O [emodin],6.4 fold,"Fold (BLI enhancement), previously unknown compounds (human, 40 min, 17 μM): 6.4 fold"
C[C@]12CC[C@@H]3c4ccc(O)cc4CC[C@H]3[C@@H]1CC[C@@H]2OC(=O)CCC1CCCC1 [estradiol cypionate],,"Fold (BLI enhancement, S/B ratio over control) [1]: 3.6 fold"
CCC(=O)O[C@H]1CC[C@H]2[C@@H]3CCc4cc(O)ccc4[C@H]3CC[C@]12C [estradiol propionate],2.6 fold,
C[C@]12CC[C@@H]3c4ccc(O)cc4CC[C@H]3[C@@H]1CC[C@@H]2O [estradiol],,"fold (BLI enhancement), additional previously known ABCG2 inhibitors (human, 40 min, 17 μM): 3.6 fold"
CC(=O)Oc1ccc2c(c1)CCC1C2CC[C@]2(C)C(=O)CCC12 (stereo partly drawn) [estrone acetate],4.1 fold,
C[C@]12CC[C@@H]3c4ccc(O)cc4CC[C@H]3[C@@H]1CCC2=O [estrone],,"fold (BLI enhancement), additional previously known ABCG2 inhibitors (human, 40 min, 17 μM): 4.1 fold"
CCOc1ccc(Cc2nccc3cc(OCC)c(OCC)cc23)cc1OCC [ethaverine hydrochloride],2.6 fold,
C#C[C@]1(O)CC[C@H]2[C@@H]3CCc4cc(O)ccc4[C@H]3CC[C@@]21C [ethinyl estradiol],2.4 fold,
COc1ccc(-c2cc(=O)c3c(O)c(OC)c(OC)cc3o2)cc1O [eupatorin],5.6 fold,"Fold (BLI enhancement), previously unknown compounds (human, 40 min, 17 μM): 5.6 fold"
C=C1C[C@@H]2[C@H](CC[C@]3(C)C(=O)CC[C@@H]23)[C@@]2(C)C=CC(=O)C=C12 [exemestane],2.1 fold,
CCOC(=O)C1=C(C)NC(C)=C(C(=O)OC)C1c1cccc(Cl)c1Cl (stereo not drawn) [felodipine],3.0 fold,
CC(C)OC(=O)C(C)(C)Oc1ccc(C(=O)c2ccc(Cl)cc2)cc1 [fenofibrate],2.3 fold,
O=c1[nH]c(=O)n([C@H]2C[C@H](O)[C@@H](CO)O2)cc1F [floxuridine],2.2 fold,
COC(=O)Nc1nc2cc(C(=O)c3ccc(F)cc3)ccc2[nH]1 [flubendazole],6.3 fold,"Fold (BLI enhancement), previously unknown compounds (human, 40 min, 17 μM): 6.3 fold"
Cl.Cl.OCCN1CCN(CCCN2c3ccccc3Sc3ccc(C(F)(F)F)cc32)CC1 [flufenazine hydrochloride],,"Fold (BLI enhancement, S/B ratio over control): 4.3 fold"
Fc1ccc(C(c2ccc(F)cc2)N2CCN(C/C=C/c3ccccc3)CC2)cc1 [flunarizine hydrochloride],2.9 fold,
FC(F)(F)c1ccc2c(c1)N(CCCN1CCN(CCCl)CC1)c1ccccc1S2 [fluphenazine N-mustard],,"Fold (BLI enhancement, S/B ratio over control): 3.6 fold"
OCCN1CCN(CCCN2c3ccccc3Sc3ccc(C(F)(F)F)cc32)CC1 [fluphenazine],2.0 fold,
COc1ccc(CCN(C)CCCC(C#N)(c2cc(OC)c(OC)c(OC)c2)C(C)C)cc1OC (stereo not drawn) [gallopamil],,"Fold (BLI enhancement, S/B ratio over control) [1]: 2.4 fold"

Structure (SMILES),"Fold (BLI enhancement, S/B ratio over control) (human, 40 min, 17 μM)",further results
CC(C)=CCC[C@]1(C)C=Cc2c(O)c3c(c(CC=C(C)C)c2O1)O[C@]12C(=C[C@@H]4C[C@H]1C(C)(C)O[C@@]2(C/C=C(/C)C(=O)O)C4=O)C3=O [gambogic acid],6.0 fold,"Fold (BLI enhancement), previously unknown compounds (human, 40 min, 17 μM): 6.0 fold"
COc1cc2ncnc(Nc3ccc(F)c(Cl)c3)c2cc1OCCCN1CCOCC1 [gefitinib],19.0 fold,"Fold (BLI enhancement), known compounds (human, 40 min, 17 μM): 19.0 fold"
O=c1c(-c2ccc(O)cc2)coc2cc(O)cc(O)c12 [genistein],,"BLI signal enhancement (human, 40 min, 17 μM): 1.2 fold; fold (BLI enhancement), additional previously known ABCG2 inhibitors (human, 40 min, 17 μM): 1.2 fold"
CN1C2CCCC1CC(NC(=O)c1nn(C)c3ccccc13)C2 (stereo not drawn) [granisetron hydrochloride],2.2 fold,
CC1(C)O[C@@H]2C[C@H]3[C@@H]4CCC5=CC(=O)CC[C@]5(C)[C@@]4(F)[C@@H](O)C[C@]3(C)[C@]2(C(=O)CCl)O1 [halcinonide],2.2 fold,
COc1ccc2c3c([nH]c2c1)C(C)=NCC3 [harmaline],,"Fold (BLI enhancement, S/B ratio over control) [1]: 8.8 fold; Fold (BLI enhancement), previously unknown compounds [2]: 8.8 fold"
CC1=NCCc2c1[nH]c1cc(O)ccc21.Cl [harmalol hydrochloride],,"Fold (BLI enhancement, S/B ratio over control) (human): 2.9 fold"
COc1ccc2c(c1)[nH]c1c(C)nccc12 [harmine],,"Fold (BLI enhancement), known compounds (human): 8.9 fold; Fold (BLI enhancement, S/B ratio over control) (human): 8.9 fold"
COc1ccc([C@@H]2CC(=O)c3c(O)cc(O)cc3O2)cc1O [hesperetin],5.0 fold,"Fold (BLI enhancement), known compounds (human, 40 min, 17 μM): 5.0 fold"
CCN(CC)CCNc1ccc(CO)c2sc3ccccc3c(=O)c12 [hycanthone],2.5 fold,
Cc1cc(O)c2c(=O)c3c(O)cc(O)c4c5c(O)cc(O)c6c(=O)c7c(O)cc(C)c8c1c2c(c34)c(c78)c65 [hypericin],,"Fold (BLI enhancement, S/B ratio over control) (human): 3.3 fold"
CCc1c2c(nc3ccc(OC(=O)N4CCC(N5CCCCC5)CC4)cc13)-c1cc3c(c(=O)n1C2)COC(=O)[C@]3(O)CC [irinotecan hydrochloride],4.0 fold,
COC(=O)[C@H]1[C@H]2C[C@H]3c4[nH]c5cc(OC)ccc5c4CCN3C[C@H]2C[C@@H](OC(=O)c2cc(OC)c(OC)c(OC)c2)[C@@H]1OC [isoreserpine],6.2 fold,"Fold (BLI enhancement), previously unknown compounds (human, 40 min, 17 μM): 6.2 fold"
COc1cc(-c2oc3cc(O)cc(O)c3c(=O)c2O)ccc1O [isorhamnetin],,"Fold (BLI enhancement, S/B ratio over control) [1]: 7.0 fold; Fold (BLI enhancement), previously unknown compounds [2]: 7.0 fold"
COc1ccc(C(=O)NCc2ccc(OCCN(C)C)cc2)cc1OC [itopride hydrochloride],2.2 fold,
O=c1c(O)c(-c2ccc(O)cc2)oc2cc(O)cc(O)c12 [kaempferol],4.3 fold,
COc1c2occc2c(OC)c2c(=O)cc(C)oc12 [khellin],3.4 fold,
CC[C@@H](C(=O)[C@@H](C)[C@@H](O)[C@H](C)CCc1ccc(C)c(O)c1C(=O)O)[C@H]1O[C@](CC)([C@H]2CC[C@](O)(CC)[C@H](C)O2)C[C@@H]1C [lasalocid sodium],,"Fold (BLI enhancement, S/B ratio over control) (human): 2.7 fold"
COc1ccc(CN2CCN(C(c3ccc(F)cc3)c3ccc(F)cc3)CC2)c(OC)c1OC [lomerizine hydrochloride],4.0 fold,
CCN(CCCCOC(=O)c1ccc(OC)c(OC)c1)C(C)Cc1ccc(OC)cc1 (stereo not drawn) [mebeverine hydrochloride],3.2 fold,
CC(=O)[C@H]1CC[C@H]2[C@@H]3C[C@H](C)C4=CC(=O)CC[C@]4(C)[C@H]3[C@@H](O)C[C@]12C [medrysone],2.3 fold,
CC(=O)O[C@]1(C(C)=O)CC[C@H]2[C@@H]3C=C(C)C4=CC(=O)CC[C@]4(C)[C@H]3CC[C@@]21C [megestrol acetate],2.1 fold,
